# Measurements from patent US20210180023A1, “CARDIAC REPAIR BY REPROGRAMMING OF ADULT CARDIAC FIBROBLASTS INTO CARDIOMYOCYTES” (The Board of Regents of the University of Texas System, priority 2017, published 2021).
# Legend:
# [1] = test system: adult cardiac fibroblasts (CF); assay: Beating cells after 4 weeks of reprogramming; assay type: cell-based, mouse; details: ZNF281 in presence of 5F
# Source text: ZNF281 enhances cardiac reprogramming of adult fibroblasts. PHF7 and ZNF281 were the two strongest activators identified from retroviral cDNA expression screen with 5F (FIG. 1D; Table S2). PHF7 is only expressed in the male germ line (Yang et al., 2012), whereas ZNF281 has a broad expression pattern with enriched expression in the heart (FIG. 51). The inventors therefore focused their initial attention on ZNF281 and explored its ability to enhance the activity of 5F. They refer to the reprogramming mix of 5F plus ZNF281 as 6F. The inventors validated the results of their screen by assessing GFP and cTnT expression in αMHC-GFP TTFs following 5F and 6F reprogramming after 7 days (FIG. 3A). […] This TTF reprogramming efficiency using 6F is noteworthy when considering the relatively low statistical likelihood of each fibroblast taking up all five or six separate retroviruses encoding the reprogramming factors. The inventors also examined the expression of cardiac and fibroblast transcripts by q-PCR. […] The addition of ZNF281 to 5F increased the expression of GFP and cTnT in αMHC-GFP CFs evaluated by immunocytochemistry after 7 days of reprogramming (FIG. 10A). […]
# [2] = test system: adult tail-tip fibroblasts (TTFs) from αMHC-GFP mice; assay: Human retroviral ORF cDNA library screen for AGHMT-mediated cardiac reprogramming (high-throughput imaging of αMHC-GFP and cTnT); assay type: cell-based, mouse; details: individual cDNA expressed together with 5F (AGHMT), 9 days, Z-score ≥2 activator, ≤−2 inhibitor
# Source text: Isolation of mouse tail-tip fibroblast. For isolation of adult mouse tail-tip fibroblasts, tails were cut from 8-12 weeks old adult wild-type or αMHC-GFP mouse and were minced into […] with razor blades after peeling off the superficial dermis. The minced tails were placed in fibroblast growth medium (DMEM supplemented with 10% FBS and 1% (vol/vol) penicillin/streptomycin). Tail-tip fibroblasts migrated out from the explants within 1 week and were passaged one time before use.
# Construction of human retroviral ORFs library. Gateway-compatible Human ORFs pEntry vectors were purchased from Thermo Fisher Scientific. Gateway-compatible retroviral destination vector, pMXs-gw, was a gift from Shinya Yamanaka (Addgene plasmid #18656) (Takahashi, 2006). The inventors transferred each ORF individually into pMXs-gw by performing site-specific LR recombination using Gateway LR Clonase II Enzyme Mix kit (Thermo Fisher Scientific).
# Retroviruses production, cellular reprogramming and treatment. For retroviruses production, Platinum E cells were seeded into culture dishes (1×10^5 cells/cm2) one day before transfection in DMEM supplemented with 10% FBS and 1% penicillin/streptomycin. Cells reached ˜80% confluency on the day of transfection. DNA plasmids were transfected into Platinum E cells using FuGENE 6 transfection reagent. Twenty-four hours after transfection, wild type or αMHC-GFP tail-tip fibroblasts were seeded into culture dishes or plates that were precoated with SureCoat (Cellutron) for one hour at a density of 6×10^4/cm^2. Forty-eight hours after transfection, polybrene was added to viral medium that was filtered through a 0.45-μm filter at a concentration of […]. The mixture replaced the growth medium in the cell culture plate with tail-tip fibroblasts. The viral infection was serially repeated twice. Twenty-four hours after the second infection, the viral medium was replaced with induction medium, composed of DMEM/199 (4:1), 10% conditioned medium obtained from neonatal rat cardiomyocyte culture, 10% FBS, 5% horse serum, 1% penicillin/streptomycin, 1% nonessential amino acids, 1% essential amino acids, 1% B-27, 1% insulin-selenium-transferrin, 1% vitamin mixture, and 1% sodium pyruvate (Invitrogen). Small molecule treatments were used throughout the reprogramming process […] (Sigma).
# Immunocytochemistry. For immunocytochemistry, cells were fixed in 4% paraformaldehyde for 15 min and permeabilized with 0.1% Triton-X in room temperature. Cells were washed with PBS for three times followed by blocking with 10% goat serum for 1 hr. Cells then were incubated with mouse monoclonal anti-cardiac Troponin T (cTnT) antibody (Thermo Scientific) at 1:500 dilutions and rabbit anti-GFP antibody (Thermo Scientific) at 1:500 dilutions in 5% Goat serum for 1 hr. After washing with PBS three times, Cells then were incubated with donkey anti-mouse alexa fluor 647 (Invitrogen) at 1:500 and goat anti-rabbit Alexa fluor 488 at 1:500 (Invitrogen).
# Identification of activators and inhibitors of cardiac reprogramming in adult fibroblasts. The inventors' previously optimized cardiac reprogramming protocol with five factors (AGHMT, also called 5F) was able to reprogram ˜3% efficiency of adult TTFs to iCMs as measured by activation of a cardiac-specific αMHC-GFP transgene and cardiac troponin T (cTnT) immunostaining (Zhou et al., 2015). To identify additional regulators of cardiac reprogramming, the inventors created a retroviral expression library consisting of 1,052 open reading frame (ORF) cDNAs representing 786 human transcription factor, cytokine, epigenetic regulator and nuclear receptor genes (Table 51). The inventors screened this expression library for activators and inhibitors of cardiac reprogramming by expressing individual cDNAs together with 5F in isolated TTFs from αMHC-GFP mice, as schematized in FIG. 1A. […]
# [3] = test system: Myc-tagged HAND2, MEF2c, or TBX5; assay: Co-immunoprecipitation in transfected HEK293 cells; assay type: binding
# Protocol: (§1) Immunoprecipitation and Western Blot Analysis. Flag-epitope tag ZNF281 fusion protein were co-expressed with myc-epitope tag fusion GATA4, HAND2, MEF2C or TBX5 in HEK293 cells for 48 hours. Cell lysates were incubated overnight with 1 μg of mouse monoclonal anti-FLAG antibody (Sigma). The cell lysates were pulldown using magnetic Protein G Dynabeads (Invitrogen) and then the Flag-ZNF281 was eluted using 0.5 mg/ml of free Flag peptide (Sigma). The final elution and the input obtained before the immunoprecipitation was analyzed by SDS-PAGE western blot using a mouse monoclonal anti-Myc antibody (Novex) or mouse monoclonal anti-FLAG antibody (Sigma).
# (§2) ZNF281 is a GATA4 coactivator. Previous reports described the influence of ZNF281 on pluripotency, stemness and epithelial-mesenchymal transition (EMT) (Hahn and Hermeking, 2014). However, the potential involvement of ZNF281 in cardiac development has not been previously explored. To begin to define the molecular mechanism whereby ZNF281 enhances cardiac reprogramming, the inventors performed co-immunoprecipitation assays with ZNF281 and each reprogramming transcription factor in transfected HEK293 cells.
# Myc-tagged GATA4 = molecular target: T1, Myc-tagged GATA4 (Homo sapiens, UniProt P43694); assay: Co-immunoprecipitation in transfected HEK293 cells; assay type: binding
# T1 construct: expressed in transfected cells; host or cells: HEK293
# Protocol: as §1, §2
# T1 sequence (P43694 whole entry): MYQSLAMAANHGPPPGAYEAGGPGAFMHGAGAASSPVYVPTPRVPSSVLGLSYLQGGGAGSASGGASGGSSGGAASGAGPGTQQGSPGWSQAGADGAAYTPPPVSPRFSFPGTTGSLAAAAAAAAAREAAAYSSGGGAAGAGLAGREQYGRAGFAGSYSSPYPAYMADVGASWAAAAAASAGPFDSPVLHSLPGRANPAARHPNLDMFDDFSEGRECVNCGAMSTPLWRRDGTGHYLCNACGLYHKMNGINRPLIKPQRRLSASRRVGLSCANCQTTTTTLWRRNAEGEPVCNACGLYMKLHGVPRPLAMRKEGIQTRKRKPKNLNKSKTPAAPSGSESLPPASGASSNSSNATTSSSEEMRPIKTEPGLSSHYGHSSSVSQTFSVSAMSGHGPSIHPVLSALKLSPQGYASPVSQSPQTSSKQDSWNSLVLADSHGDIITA
substance,measurement,setting,value
Zinc finger protein 281 [ZNF281],increase in the number of beating cells,[1],2 fold
same,cTnT Z-score,[2],7.0
same,αMHC Z-score,[2]; αMHC-GFP,2.9
same,co-immunoprecipitation of FLAG-tagged ZNF281,[3],not with the other three factors
same,co-immunoprecipitation of FLAG-tagged ZNF281,Myc-tagged GATA4,co-immunoprecipitated
